Measurements reported in patent US6225478A, “Iridoid derivatives and neovascularization inhibitors containing the same as active ingredient” (Tsumura & Co., priority 1999, dated 2001).

Columns and labels:
HUFEC = assay: Cell Migration Assay (CMA) Test, inhibitory rate with control (-) correction; type: cell-based, human; conditions: Homo sapiens, 24 h, 125 μl of 0.32 mM sample solution in 4.0 ml medium, 80% or more = remarkable
Experimental: (§1) Samples were prepared using the present compounds of Compound No. I-60 through I-315. More specifically, 32 μl of a 20 mM sample solution dissolved in dimethylsulfoxide (DMSO) were removed and brought to a volume of 1 ml with phosphate-buffered saline (PBS) to prepare a sample solution having a concentration of 0.32 mM (containing 3.2% DMSO).
After disseminating the 7th subculture of […] obtained from the first generation at 4 ml/well (3.0×10^5 cells/well) in a collagen-coated 6-well plate (NUNC), the cells were cultured for 48 hours at 37° C. in the presence of 5% CO2. The cells reached nearly a completely confluent state as a result of this culturing.
A double-edged, disposable razor blade was divided into four sections, of which one of those sections was pinched between a pair of forceps. Using this piece of razor blade, the cell surface in the above confluent state was scraped off.
After washing the surface of the wells from which the cells had been scraped off with medium, 4.0 ml of fresh M199 (2+) medium were placed in the wells. 4.0 ml of M199 medium were added to the control (-) well.
125 μl of sample solution (0.32 mM, containing 3.2% dimethylsulfoxide) were added to the wells.
125 μl of PBS solution containing 3.2% dimethylsulfoxide were added to the control wells instead of sample. The cells were cultured for 24 hours at 37° C. in the presence of 5% CO2. After discarding the culture liquid, the cells were fixed for 30 minutes with methanol. Next, after […] the cells for 4 hours with Giemsa stain, the plates were washed with tap water and air dried.
Measurement of cell migration was performed by microscopically counting the number of cells that had newly migrated within the range of a 1 mm×1 mm block. […] The total number of cells counted in blocks 1 through 5 were then totaled to determine the overall total number of cells. Four fields were counted for each well.
Evaluation was performed determining the cell migration inhibitory rate (%) according to the following equation.
Inhibitory rate=100-((number of migrating cells to which sample was added-number of migrating cells of control (-))×100/(number of migrating cells of control (+)-number of migrating cells of control (-)))
If this inhibitory rate was 80% or more, cell migration was assessed as being remarkable.

[1] = test system: human umbilical-vein endothelial cells (HUVEC); assay: Tube Formation Assay (TFA) Test, HUVEC in collagen gel; type: cell-based; conditions: Tables 75-83, 0.32 mM sample solution, method as for Compounds 1 through 60; for inhibition at 320 µM (stock): Homo sapiens, HUVEC, read-out: TFA Inhibition rate (%)
Experimental: Furthermore, the sample liquids of compounds used in the CPA and CMA tests were prepared in the manner described below. Firstly, after weighing out each compound, a calculated amount of DMSO was added. After dissolving the compound in the DMSO, phosphate buffered physiological saline (PBS (-)) was added to bring the sample concentration to 1 mg/ml in PBS (-). The amount of DMSO used to dissolve the compounds was adjusted in advance to that the concentration of DMSO at that time was 5%. The resulting liquids were diluted 10-fold with 5% DMSO-PBS (-) solution to prepare sample solutions having a concentration of 0.1 mg/ml. In the TFA test, 320 μl of the prepared 1 mg/ml sample solutions were removed followed by addition of 680 μl of PBS (-) to prepare samples having a concentration of […]. Moreover, 100 μl of this solution was removed followed by addition of 900 μl of PBS (-) to dilute 10-fold and prepare samples having a concentration of 1 μg/ml. P [Cell Proliferation Assay (CPA) Test]
To begin with, 8 volumes of Type 1-A cell matrix (manufactured by Gibco Co.), 1 volume of 10×M119, and 1 volume of reconstituted buffer [200 mM HEPES, 0.05 N sodium hydroxide, 260 mM sodium bicarbonate] were slowly mixed under cooling with ice while avoiding bubbling to form a collagen gel. This collagen gel was distributed in a NUNC 24-well plate at 310 μl/well followed by allowing to stand undisturbed for 2 hours at 37° C. to solidify the gel.
Next, the 7th subculture of HUVEC (1×10^5 cells/ml) obtained from the first generation in the same manner as above were disseminated at 500 μl/well. The cells were cultured for 2 hours at 37° C. to allow the cells to make contact with the collagen. After then removing the medium by aspiration, 50 μl of sample solution were added followed by addition of 310 μl/well of freshly prepared collagen gel and culturing for 1 hour and 10 minutes at 37° C. to solidify the double-layer gel.
1 ml/well of M-199 medium containing 20% FCS, 30 ng /ml of b-FGF and 0.1 μM PMA were added to the wells followed by culturing for 20 hours at 37° C. in the presence of 5% CO2.
Measurement of the lengths of the formed tubes was performed using the public domain NIH Image with a computer.
Evaluation was performed by calculating the inhibition rate (%) of tube formation according to the following formula.
Inhibition rate (%)=100-((formed tube length in presence of sample-formed tube length in presence of control (-))×100/(formed tube length in presence of control (+)-formed tube length in presence of control (-)))
as §1
The testing method used for these compounds was the same as that used for the compounds of Compound No. 1 through 60 previously described.

Row | Compound | inhibition at 320 µM (stock) (HUFEC) | inhibition at 320 µM (stock) [1] | TFA (inhibition rate, %) [1]
1 | COC(=O)C1=CO[C@@H](OC(=O)NCc2ccc(Cl)c(Cl)c2)[C@@H]2C(C)=CC[C@H]12 [I-74] | 23.4% | 5.8% | –
2 | COC(=O)C1=CO[C@@H](OC(=O)NC2CCCCCC2)[C@H]2[C@@H]1CC[C@@H]2C [I-208] | 7.6% | 8.2% | –
3 | CNC(=O)OCCN1CCN(C(=O)C2=COC[C@@H]3[C@H](C)CC[C@H]23)CC1 [I-306] | 25.1% | 22.6% | –
4 | COC(=O)C1=CO[C@@H](OC(=O)N(C)Cc2ccccc2)[C@@H]2C(C)=CC[C@H]12 [I-81] | 31.2% | 8.3% | –
5 | COC(=O)C1=CO[C@@H](OC(=O)Nc2ccc(Cl)cc2)[C@H]2[C@@H]1CC[C@@H]2C [I-260] | 8.9% | 2.5% | –
6 | COC(=O)C1=CO[C@@H](OC(=O)NCc2cccc(F)c2)[C@H]2[C@@H]1CC[C@@H]2C [I-232] | 6.5% | 2.9% | –
7 | COC(=O)C1=CO[C@@H](OC(=O)NCc2ccccn2)[C@@H]2C(C)=CC[C@H]12 [I-75] | 11.7% | 4.3% | –
8 | COC(=O)C1=CO[C@@H](OC(=O)NCCCl)[C@@H]2C(COC(=O)NCCCl)=CC[C@H]12 [I-288] | 15.9% | 2.4% | –
9 | CCOC(=O)C1=COC(OC(=O)NC)C2C1CC1OC12CO (centres unmarked) [I-279] | 45.1% | 13.2% | –
10 | COC(=O)C1=CO[C@@H](OC(=O)NCc2cccc(C(F)(F)F)c2)[C@H]2[C@@H]1CC[C@@H]2C [I-233] | 5.5% | 4.1% | –
11 | COC(=O)C1=CO[C@@H](OC(=O)Nc2ccc(Cl)cc2)[C@@H]2C(C)=CC[C@H]12 [I-162] | 8.9% | 7.5% | –
12 | CNC(=O)O[C@@H]1OC=C(C(=O)NCc2nc3ccccc3[nH]2)[C@H]2C[C@@H]3O[C@]3(C)[C@@H]12 [I-63] | 14.2% | 41.7% | –
13 | COC(=O)C1=COC[C@@H]2C(C(=O)N3CCN(CCO)CC3)=CC[C@H]12 [I-293] | 69.3% | 11.2% | –
14 | CCC(CC)NC(=O)O[C@@H]1OC=C(C(=O)OC)[C@H]2CC[C@H](C)[C@@H]12 [I-207] | 5.5% | 4.4% | –
15 | COC(=O)C1=CO[C@@H](OC(=O)NCCN2CCCCC2)[C@@H]2C(C)=CC[C@H]12 [I-118] | 31.3% | 5.1% | –
16 | COC(=O)C1=CO[C@@H](OC(=O)Nc2ccc(C)cc2)[C@H]2[C@@H]1CC[C@@H]2C [I-270] | 28.7% | 5.9% | –
17 | CCCN(C)C(=O)O[C@@H]1OC=C(C(=O)OC)[C@H]2CC=C(C)[C@@H]12 [I-90] | 4.3% | 22.8% | –
18 | COC(=O)C1=CO[C@@H](OC(=O)NCC2CCCCC2)[C@H]2[C@@H]1CC[C@@H]2C [I-191] | 8% | 6% | –
19 | COC(=O)C1=CO[C@@H](OC(=O)NCCc2ccccn2)[C@H]2[C@@H]1CC[C@@H]2C [I-182] | 3.9% | 9.6% | –
20 | CNC(=O)O[C@@H]1OC=C(C(=O)N2CCN(CCO)CC2)[C@H]2CC[C@@H](C)[C@@H]12 [I-282] | 5.8% | 6% | –

Row | Compound | inhibition at 320 µM (stock) (HUFEC) | inhibition at 320 µM (stock) [1] | TFA (inhibition rate, %) [1]
21 | CCCCCCNC(=O)O[C@@H]1OC=C(C(=O)OC)[C@H]2CC[C@H](C)[C@@H]12 [I-175] | 19.5% | 7.5% | –
22 | COC(=O)C1=CO[C@@H](OC(N)=O)[C@@H]2C(C)=CC[C@H]12 [I-70] | 7.1% | 75.4% | –
23 | COC(=O)C1=CO[C@@H](OC(=O)NCC(C)C)[C@@H]2C(C)=CC[C@H]12 [I-87] | 8% | 8.6% | –
24 | CCN1CCN(C(=O)O[C@@H]2OC=C(C(=O)OC)[C@H]3CC=C(C)[C@@H]23)CC1 [I-95] | 9.8% | 4.5% | –
25 | CNC(=O)O[C@@H]1OC=C(C(=O)N2C[C@@H](C)O[C@@H](C)C2)[C@H]2CC=C(C)[C@@H]12 [I-311] | 7.6% | 10.7% | –
26 | CCOc1ccccc1N1CCN(C(=O)O[C@@H]2OC=C(C(=O)OC)[C@H]3CC[C@H](C)[C@@H]23)CC1 [I-243] | 6.7% | 8.1% | –
27 | COC(=O)C1=CO[C@@H](OC(=O)NCC#N)[C@H]2[C@@H]1CC[C@@H]2C [I-176] | 11.7% | 2.2% | –
28 | COC(=O)C1=CO[C@@H](OC(=O)Nc2cccc(C#N)c2)[C@@H]2C(C)=CC[C@H]12 [I-166] | 8.7% | 9.1% | –
29 | C[C@]12O[C@H]1C[C@@H]1C(C(=O)N3CCN(CCO)CC3)=COC[C@@H]12 [I-304] | 9.4% | 11.2% | –
30 | COC(=O)C1=CO[C@@H](OC(=O)N(C)CC2OCCO2)[C@@H]2C(C)=CC[C@H]12 [I-93] | 5.8% | 2.4% | –
31 | COC(=O)C1=CO[C@@H](OC(=O)NCCS)[C@H]2[C@@H]1CC[C@@H]2C [I-236] | 28.1% | 10.4% | –
32 | COC(=O)C1=CO[C@@H](OC(=O)NCc2ccncc2)[C@H]2[C@@H]1CC[C@@H]2C [I-221] | 15.6% | 24.5% | –
33 | COC(=O)C1=CO[C@@H](OC(=O)N2CCCCC2)[C@H]2[C@@H]1CC[C@@H]2C [I-216] | 9.4% | 3.7% | –
34 | COC(=O)C1=CO[C@@H](OC(=O)N(C)CC2OCCO2)[C@H]2[C@@H]1CC[C@@H]2C [I-198] | 7.9% | 2.9% | –
35 | COC(=O)C1=CO[C@@H](OC(=O)NCC2CCCO2)[C@H]2[C@@H]1CC[C@@H]2C (some centres unmarked) [I-181] | 2.3% | 3.2% | –
36 | COC(=O)C1=CO[C@@H](OC(=O)NCc2cccc(C(F)(F)F)c2)[C@@H]2C(C)=CC[C@H]12 [I-128] | 8.7% | 9.4% | –
37 | CNC(=O)O[C@@H]1OC=C(C(=O)O)[C@H]2CC=C(C)[C@@H]12 [I-307] | 52.5% | – | 50.2%
38 | CNC(=O)O[C@@H]1OC=C(C(=O)OC)[C@H]2CC=C(C)[C@@H]12 [I-174] | 12.9% | 67% | –
39 | COC(=O)C1=CO[C@@H](OC(=O)Nc2c(F)cccc2F)[C@@H]2C(C)=CC[C@H]12 [I-157] | 7.7% | 12.9% | –
40 | COC(=O)C1=CO[C@@H](OC(=O)Nc2ccc(SC)cc2)[C@@H]2C(C)=CC[C@H]12 [I-172] | 5.5% | 8.7% | –
